# Reference: patent US8906852B2 (MethylGene Inc., priority 2010, dated 2014)
# Biological target: T1, VEGFR/KDR (Homo sapiens, UniProt P35968)
# T1 construct: made in house; host or cells: Sf9 cells (Spodoptera frugiperda), baculovirus
# Assay: VEGFR/KDR kinase inhibition, DELFIA assay
# Assay type: biochemical
# Conditions: ATP 0.6 uM (2x Km), enzyme 5 nM
# Procedure: Inhibition of VEGFR/KDR is measured in a DELFIA™ assay (Perkin Elmer). The substrate poly(Glu4, Tyr) is immobilized onto black high-binding polystyrene 96-well plates. The coated plates are washed and stored at 4° C. During the assay, the enzyme is pre-incubated with inhibitor and Mg-ATP on ice in polypropylene 96-well plates for 4 minutes, and then transferred to the coated plates. The subsequent kinase reaction takes place at 30° C. for 10-30 minutes. ATP concentrations in the assay are 0.6 uM for VEGFR/KDR (2× the Km). Enzyme concentration is 5 nM. After incubation, the kinase reactions are quenched with EDTA and the plates are washed. Phosphorylated product is detected by incubation with Europium-labeled anti-phosphotyrosine MoAb. After washing the plates, bound MoAb is detected by time-resolved fluorescence in a Gemini SpectraMax reader (Molecular Devices). Compounds are evaluated over a range of concentrations, and IC50 values (concentration of compounds giving 50% inhibition of enzymatic activity) are determined.
# T1 sequence (P35968 806-1356): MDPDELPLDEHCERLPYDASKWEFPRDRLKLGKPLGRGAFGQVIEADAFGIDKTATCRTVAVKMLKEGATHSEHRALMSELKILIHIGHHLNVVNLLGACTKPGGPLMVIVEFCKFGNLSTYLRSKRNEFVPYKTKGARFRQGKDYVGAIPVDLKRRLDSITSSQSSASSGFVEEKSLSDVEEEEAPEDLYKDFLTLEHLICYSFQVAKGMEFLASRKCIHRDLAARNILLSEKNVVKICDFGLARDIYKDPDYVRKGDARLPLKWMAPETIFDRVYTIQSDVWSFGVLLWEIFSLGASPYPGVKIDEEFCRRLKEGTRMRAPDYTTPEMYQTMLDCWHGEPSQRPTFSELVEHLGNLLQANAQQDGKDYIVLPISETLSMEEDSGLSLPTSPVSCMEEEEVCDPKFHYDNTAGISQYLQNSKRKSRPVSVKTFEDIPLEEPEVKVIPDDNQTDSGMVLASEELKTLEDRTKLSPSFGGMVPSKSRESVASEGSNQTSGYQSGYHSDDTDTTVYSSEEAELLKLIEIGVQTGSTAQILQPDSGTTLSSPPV
row,Compound,IC50 [nM]
1,"1-(2-(6-(7-(2-fluoro-4-nitrophenoxy)thieno[3,2-b]pyridin-2-yl)pyridin-3-yl)ethyl)pyrrolidin-2-one [Compound 293]",< 50
2,"O=C(Nc1ccc(Oc2ccnc3cc(-c4ccc(CN5CC(O)CC5=O)cn4)sc23)c(F)c1)NC1CC1 (racemic) [Compound 111, (±)-1-cyclopropyl-3-(3-fluoro-4-(2-(5-((4-hydroxy-2-oxopyrrolidin-1-yl)methyl)pyridin-2-yl)thieno[3,2-b]pyridin-7-yloxy)phenyl)urea]",< 50
3,"CN(C[C@@H](O)[C@H](O)[C@@H](O)[C@@H](O)CO)C(=O)c1ccc(-c2cc3nccc(Oc4ccc(NC(=O)NC5CC5)cc4F)c3s2)nc1 (stereo in doubt) [Compound 244, 6-(7-(4-(3-cyclopropylureido)-2-fluorophenoxy)thieno[3,2-b]pyridin-2-yl)-N-methyl-N-((2R,3S,4S,5S)-2,3,4,5,6-pentahydroxyhexyl)nicotinamide]",< 50
4,CN(C(=O)OC(C)(C)C)C1CCN(Cc2ccc(-c3cc4nccc(Oc5ccc(NC(=O)NC6CC6)cc5F)c4s3)nc2)CC1 [342-A],< 50
5,"COCCN(Cc1ccc(-c2cc3nccc(Oc4ccc(NC(=O)NC5CC5)cc4F)c3s2)nc1)C(=O)N(C)C [Compound 4, N-[3-((6-(7-(4-(3-cyclopropylureido)-2-fluorophenoxy)thieno[3,2-b]pyridin-2-yl)pyridin-3-yl)methyl)]-N-(1,1-dimethyl)-N-[3-(2-methoxyethyl)]urea]",< 50
6,"COCCN(Cc1ccc(-c2cc3nccc(Oc4ccc(NC(=O)NC5CC5)cc4F)c3s2)nc1)CC(F)(F)F [Compound 8, 1-cyclopropyl-3-(3-fluoro-4-(2-(5-(((2-methoxyethyl)(2,2,2-trifluoroethyl)amino)-methyl)pyridin-2-yl)thieno [3,2-b]pyridin-7-yloxy)phenyl)urea]",50 to 100
7,"CC(=O)N(CCO)Cc1ccc(-c2cc3nccc(Oc4ccc(NC(=O)NC5CC5)cc4F)c3s2)nc1 [Compound 10, N-((6-(7-(4-(3-cyclopropylureido)-2-fluorophenoxy)thieno[3,2-b]pyridin-2-yl)pyridin-3-yl)methyl)-N-(2-hydroxyethyl)acetamide]",< 50
8,"COCCNCc1ccc(-c2cc3nccc(Oc4ccc(NC(=O)CC5CC5)cc4F)c3s2)nc1 [Compound 13, 2-cyclopropyl-N-(3-fluoro-4-(2-(5-((2-methoxyethylamino)methyl)pyridin-2-yl)-thieno[3,2-b]pyridin-7-yloxy)phenyl)acetamide]",50 to 100
9,"CCOC(Nc1ccc(Oc2ccnc3cc(-c4ccc(CNCCOC)cn4)sc23)c(F)c1)C(F)(F)F (centres unmarked) [Compound 14, N-(1-ethoxy-2,2,2-trifluoroethyl)-3-fluoro-4-(2-(5-((2-methoxyethylamino)-methyl)pyridin-2-yl)thieno[3,2-b]pyridin-7-yloxy)aniline]",≥ 250
10,"COCCNCc1ccc(-c2cc3nccc(Oc4ccc(NC(CC(=O)Nc5ccccc5)C(F)(F)F)cc4F)c3s2)nc1 (centres unmarked) [Compound 19, 4,4,4-trifluoro-3-(3-fluoro-4-(2-(5-((2-methoxyethylamino)methyl)pyridin-2-yl)thieno[3,2-b]pyridin-7-yloxy)phenylamino)-N-phenylbutanamide]",< 50
11,"COCCNCc1ccc(-c2cc3nccc(Oc4ccc(NC(CC(=O)Nc5ccc(F)cc5)C(F)(F)F)cc4F)c3s2)nc1 (centres unmarked) [Compound 20, 4,4,4-trifluoro-3-(3-fluoro-4-(2-(5-((2-methoxyethylamino)methy)pyridin-2-yl)thieno[3,2-b]pyridin-7-yloxy)phenylamino)-N-(4-fluorophenyl)butanamide]",< 50
12,"COCCNCc1ccc(-c2cc3nccc(Oc4ccc(NC(CC(=O)N(C)c5ccccc5)C(F)(F)F)cc4F)c3s2)nc1 (centres unmarked) [Compound 21, 4,4,4-trifluoro-3-(3-fluoro-4-(2-(5-((2-methoxyethylamino)methyl)pyridin-2-yl)thieno[3,2-b]pyridin-7-yloxy)phenylamino)-N-methyl-N-phenylbutanamide]",< 50
13,"COCCNCc1ccc(-c2cc3nccc(Oc4ccc(NC(=O)NC5CC5)nc4)c3s2)nc1 [Compound 29, 1-cyclopropyl-3-(5-(2-(5-((2-methoxyethylamino)methyl)pyridin-2-yl)thieno[3,2-b]-pyridin-7-yloxy)pyridin-2-yl)urea]",100 to 250
14,"COCCN(Cc1ccc(-c2cc3nccc(Oc4ccc(NC(=O)NC5CC5)nc4)c3s2)nc1)C(=O)CO [Compound 31, N-((6-(7-(6-(3-cyclopropylureido)pyridin-3-yloxy)thieno[3,2-b]pyridin-2-yl)pyridin-3-yl)methyl)-2-hydroxy-N-(2-methoxyethyl)acetamide]",100 to 250
15,"COCCN(Cc1ccc(-c2cc3nccc(Oc4ccc(NC(=O)NC5CC5)cc4F)c3s2)nc1)C(=O)COP(=O)(O)O [Compound 34, 2-(((6-(7-(4-(3-cyclopropylureido)-2-fluorophenoxy)thieno[3,2-b]pyridin-2-yl)pyridin-3-yl)methyl)(2-methoxyethyl)amino)-2-oxoethyl dihydrogen phosphate]",< 50
16,"CCNC(=O)N(CCOC)Cc1ccc(-c2cc3nccc(Oc4ccc(NC(=O)NC5CC5)c(F)c4F)c3s2)nc1 [Compound 35, N-[3-((6-(7-(4-(3-cyclopropylureido)-2,3-difluorophenoxy)thieno[3,2-b]pyridin-2-yl)pyridin-3-yl)methyl)]-N-(1-ethyl)-N-(2-methoxyethyl)urea]",< 50
17,"CCNC(=O)N(CCOC)Cc1ccc(-c2cc3nccc(Oc4ccc(NC(=O)NC5CC5)nc4)c3s2)nc1 [Compound 37, N-[3((6-(7-(6-(3-cyclopropylureido)-pyridin-3-yloxy)thieno[3,2-b]-pyridin-2-yl)pyridin-3-yl)methyl)]-N-(1-ethyl)-N-[3-(2-methoxyethyl)]urea]",100 to 250
18,"CCNC(=O)N(CCOC)CCc1ccc(-c2cc3nccc(Oc4ccc(NC(=O)NC5CC5)cc4F)c3s2)nc1 [Compound 38, N-[3-(2-(6-(7-(4-(3-cyclopropylureido)-2-fluorophenoxy)-thieno[3,2-b]-pyridin-2-yl)pyridin-3-yl)ethyl)]-N-(1-ethyl)-N-[3-(2-methoxyethyl)]urea]",< 50
19,COCCN(Cc1ccc(-c2cc3nccc(Oc4ccc(NC(CC(=O)Nc5ccc(F)cc5)C(F)(F)F)cc4F)c3s2)nc1)C(C)=O (centres unmarked) [Compound 39],< 50
20,"COCCN(Cc1ccc(-c2cc3nccc(Oc4ccc(NC(=O)NC5CC5)nc4)c3s2)nc1)C(C)=O [Compound 40, N-((6-(7-(6-(3-cyclopropylureido)-pyridin-3-yloxy)thieno[3,2-b]-pyridirin-2-yl)pyridin-3-yl)methyl)-N-(2-methoxyethyl)-acetamide]",50 to 100
21,"COCCN(Cc1ccc(-c2cc3nccc(Oc4ccc(NC(=O)CC5CC5)cc4F)c3s2)nc1)C(C)=O [Compound 42, 2-cyclopropyl-N-(3-fluoro-4-(2-(5-((N-(2-methoxyethyl)-acetamido)methyl)pyridin-2-yl)thieno[3,2-b]-pyridin-7-yloxy)phenyl)-acetamide]",50 to 100
22,"CC(=O)N[C@H]1CCN(Cc2ccc(-c3cc4nccc(Oc5ccc(NC(=O)NC6CC6)cc5F)c4s3)nc2)C1=O [Compound 44, (S)-N-(l-((6-(7-(4-(3-cyclopropylureido)-2-fluorophenoxy)thieno[3,2-b]pyridin-2-yl)pyridin-3-yl)methyl)-2-oxopyrrolidin-3-yl)acetamide]",< 50
23,"COCCN(CCc1ccc(-c2cc3nccc(Oc4ccc(NC(=O)NC5CC5)cc4F)c3s2)nc1)C(=O)CO [Compound 46, N-(2-(6-(7-(4-(3-cyclopropylureido)-2-fluorophenoxy)thieno[3,2-b]pyridin-2-yl)pyridin-3-yl)ethyl)-2-hydroxy-N-(2-methoxyethyl)-acetamide]",< 50
24,"CC(C)(C)OC(=O)N1CCN(Cc2ccc(-c3cc4nccc(Oc5ccc(NC(=O)NC6CC6)cc5F)c4s3)nc2)CC1 [Compound 48, tert-butyl 4-((6-(7-(4-(3-cyclopropylureido)-2-fluorophenoxy)thieno[3,2-b]-pyridin-2-yl)pyridin-3-yl)methyl)piperazine-1-carboxylate]",< 50
25,"COCCN(CCOC)Cc1ccc(-c2cc3nccc(Oc4ccc(NC(=O)NC5CC5)cc4F)c3s2)nc1 [Compound 50, 1-(4-(2-(5-((bis(2-methoxyethyl)amino)methyl)pyridin-2-yl)thieno[3,2-b]-pyridin-7-yloxy)-3-fluorophenyl)-3-cyclopropylurea]",< 50
26,CN(CCO)Cc1ccc(-c2cc3nccc(Oc4ccc(NC(=O)NC5CC5)cc4F)c3s2)nc1 [Compound 50-A],< 50
27,"O=C(Nc1ccc(Oc2ccnc3cc(-c4ccc(CN5CC[C@H](O)C5)cn4)sc23)c(F)c1)NC1CC1 [Compound 52, (S)-1-cyclopropyl-3-(3-fluoro-4-(2-(5-((3-hydroxypyrrolidin-1-yl)methyl)pyridin-2-yl)thieno[3,2-b]-pyridin-7-yloxy)phenyl)urea]",< 50
28,"O=C(Nc1ccc(Oc2ccnc3cc(-c4ccc(CN5CC[C@@H](O)C5)cn4)sc23)c(F)c1)NC1CC1 [Compound 53, (R)-1-cyclopropyl-3-(3-fluoro-4-(2-(5-((3-hydroxypyrrolidin-1-yl)methyl)pyridin-2-yl)thieno[3,2-b]-pyridin-7-yloxy)phenyl)urea]",< 50
29,"CN(C)[C@H]1CCN(Cc2ccc(-c3cc4nccc(Oc5ccc(NC(=O)NC6CC6)cc5F)c4s3)nc2)C1 [Compound 54, (S)-1-cyclopropyl-3-(4-(2-(5-((3-(dimethylamino)pyrrolidin-1-yl)methyl)pyridin-2-yl)thieno[3,2-b]pyridin-7-yloxy)-3-fluorophenyl)urea]",< 50
